From patent publication US6590107B1, “Synthesis, anti-human immunodeficiency virus, and anti-hepatitis B virus activities of 1,3-oxaselenolane nucleosides” (Emory University, priority 1997, dated 2003)
Like-named read-outs stand apart in the source and are kept apart here.

Columns and labels:
[1] = test system: uninfected human PBM cells; assay: Toxicity: growth of mitogen-stimulated uninfected human PBM cells; format: cell-based
Protocol: Mitogen stimulated uninfected human PBM cells (3.8×10^5 cells/ml) were cultured in the presence and absence of drug under similar conditions as those used for the antiviral assay described above. The cells were counted after 6 days using a hemacytometer and the trypan blue exclusion method, as described by Schinazi, et al., (Antimicrobial Agents and Chemotherapy, 22(3), 499 (1982)).

Vero cells = assay: Toxicity in Vero cells; format: cell-based
CEM cells = assay: Toxicity in CEM cells; format: cell-based, human
Excerpt: Some of the 1,3-oxaselenolanyl nucleosides described herein can be used to treat abnormal cellular proliferation, including tumors and cancer. The extent of antiproliferative activity can be easily assessed by assaying the compound according to the procedure below in a CEM cell or other tumor or proliferative cell line assay. CEM cells are human lymphoma cells (a T-lymphoblastoid cell line that can be obtained from ATCC, Rockville, Md.). The toxicity of a compound to CEM cells provides useful information regarding the activity of the compound against tumors. The toxicity is measured as IC50 micromolar).
Drug solutions, including cycloheximide as a positive control, are plated in triplicate in 50 μl growth medium at 2 times the final concentration and allowed to equilibrate at 37° C. in a 5% CO2 incubator. […] Absorbance is read at 570 nm, blanking on the medium-only wells using a Biotek Biokinetics plate read (Biotek, Winooski, Vt.). Average percent inhibition of growth compared to the untreated control is calculated. IC50, IC90, slope and r value are calculated by the method of Chou and Talaly. Chou T-C, Talalay P. Quantitative analysis of dose-effect relationships: The combined effects of multiple drugs or enzyme inhibitors. […]

HIV-1 (strain LAV) = format: cell-based
Protocol: The ability of nucleosides to inhibit HIV can be measured by various experimental techniques. The technique used herein, and described in detail below, measures the inhibition of viral replication in phytohemaggluinin (PHA) stimulated human peripheral blood mononuclear (PBM) cells infected with HIV-1 (strain LAV). The amount of virus produced is determined by measuring the virus-coded reverse transcriptase enzyme. The amount of enzyme produced is proportional to the amount of virus produced.
Three-day old phytohemagglutinin-stimulated PBM cells (10^6 cells/ml) from hepatitis B and HIV-1 seronegative healthy donors were infected with HIV-1 (strain LAV) at a concentration of about 100 times the 50% tissue culture infections dose (TICD 50) per ml and cultured in the presence and absence of various concentrations of antiviral compounds.
Approximately one hour after infection, the medium, with the compound to be tested (2 times the final concentration in medium) or without compound, was added to the flasks (5 ml; final volume 10 ml). AZT was used as a positive control.
The cells were exposed to the virus (about 2×10^5 dpm/ml, as determined by reverse transcriptase assay) and then placed in a CO2 incubator. HIV-1 (strain LAV) was obtained from the Center for Disease Control, Atlanta, Ga. The methods used for culturing the PBM cells, harvesting the virus and determining the reverse transcriptase activity were those described by McDougal, et al. (J. Immun. Meth. 76, 171-183, 1985) and Spira, et al. (J. Clin. Meth. 25, 97-99, 1987), except that fungizone was not included in the medium (see Schinazi, et al., Antimicrob. Agents Chemother. 32, 1784-1787 (1988); Id., 34:1061-1067 (1990)).
On day 6, the cells and supernatant were tnansferred to a 15 ml tube and centrifuged at about 900 g for 10 minutes. Five ml of supernatant was removed and the virus was concentrated by centrifugation at 40,000 rpm for 30 minutes (Beckman 70.1 Ti rotor). The solubilized virus pellet was processed for determination of the levels of reverse transcriptase. Results are expressed in dpm/ml of sampled supernatant. Virus from smaller volumes of supernatant (1 ml) can also be concentrated by centriguation prior to solubilization and determination of reverse transcriptase levels.
The median effective (EC50) concentration was determined by the median effect-method (Antimicrob. Agents Chemother. 30, 491-498 (1986)). Briefly, the percent inhibition of virus, as determined from measurements of reverse transcriptase, is plotted versus the micromolar concentration of compound.

[2] = test system: Cloned M184 HIV-1 (M184V); assay: Anti-HIV activity in PBM cells infected with cloned M184V HIV-1 (mutation at codon 184 of reverse transcriptase gene); format: cell-based; conditions: for FI EC50 (fold increase): EC50 data from cloned virus/EC50 data from xxBRU; for FI EC90 (fold increase): EC90 M184V versus xxBRU; for EC50 / EC90: Virus M184V; for EC50 / EC90 / activity against the mutated virus: PBM cells; for activity against the mutated virus: HIV with mutation at codon 184 in reverse transcriptase gene
xxBRU HIV-1 = assay: Anti-HIV activity in PBM cells, virus xxBRU; format: cell-based
HIV = conditions: comparison with AZT; cited from earlier work
[3] = mitogen-stimulated uninfected human PBM cells, read-out: Toxicity (IC50 μM) PMB
[4] = PBM cells, HIV-1 strain LAV, estimated 10% error factor, read-out: Anti-HIV Activity in PBM Cells (EC50 μM)
[5] = Table 5, cytotoxicity in PBM cells, read-out: IC50 PBM
[6] = Table 5, anti-HIV activity in PBM cells
[7] = Table 5, anti-HIV activity in PBM cells, read-out: EC50

Nc1ccn(C2C[Se]C(CO)O2)c(=O)n1 (centres unmarked)
IC50 [1, 3]: > 100 µM
IC50 (Vero cells): > 100 µM
IC50 (CEM cells): > 100 µM
EC50 (HIV-1 (strain LAV); [4]): 0.88 µM

Nc1nc(=O)n(C2C[Se]C(CO)O2)cc1F (racemic) [(±)-β-Se-FddC, 2-hydroxymethyl-4-(N-5′-flurocytosin-1′-yl)-1,3-oxaselenolane]
IC50 [1, 5]: > 100 µM
FI EC50 (fold increase) [2]: 59
FI EC90 (fold increase) [2]: 49
EC50 [2]: 108 µM
EC90 [2]: 337 µM
EC90 (HIV-1 (strain LAV); [6]): 16.4 µM
EC50 (HIV-1 (strain LAV); [7]): 5.55 µM

Nc1ccn(C2C[Se]C(CO)O2)c(=O)n1 (racemic) [(±)-β-Se-ddC]
IC50 [1, 5]: > 100 µM
activity against the mutated virus [2]: significant activity
EC90 (HIV-1 (strain LAV); [6]): 209 µM
EC50 (HIV-1 (strain LAV); [7]): 2.69 µM
EC50 (xxBRU HIV-1): 1.84 µM
EC90 (xxBRU HIV-1): 6.9 µM

Nc1ccn(C2CSC(CO)O2)c(=O)n1 (racemic) [BCH-189, 2-hydroxymethyl-5-(cytosin-1-yl)-1,3-oxathiolane]
activity against HIV relative to AZT (HIV): approximately the same activity against HIV as AZT

Nc1nc(=O)n(C2C[Se]C(CO)O2)cc1F [(+)-β-Se-FddC, 1-β-D-(2′-hydroxymethyl-1′,3′-oxaselenolane-5′-yl)-5-fluorocytosine]
IC50 [1, 5]: > 100 µM
FI EC50 (fold increase) [2]: >6
FI EC90 (fold increase) [2]: >1
EC50 [2]: > 50 µM
EC90 [2]: > 50 µM
EC90 (HIV-1 (strain LAV); [6]): 164 µM
EC50 (HIV-1 (strain LAV); [7]): 41.9 µM

Nc1ccn([C@@H]2C[Se][C@H](CO)O2)c(=O)n1 [(+)-β-Se-ddC, (+)-(2R,5S)-β-D-2′,3′-dideoxy-3′-seleno-cytidine]
IC50 [1, 5]: > 100 µM
EC90 (HIV-1 (strain LAV); [6]): 677 µM
EC50 (HIV-1 (strain LAV); [7]): 3.39 µM
EC50 (xxBRU HIV-1): 8.62 µM
EC90 (xxBRU HIV-1): 35.1 µM

Nc1nc(=O)n(C2C[Se]C(CO)O2)cc1F [(−)-β-Se-FddC, 1-β-L-(2′-Hydroxymethyl-1′,3′-oxaselenolane-5′-yl)-5-fluorocytosine]
IC50 [1, 5]: > 100 µM
FI EC50 (fold increase) [2]: >455
FI EC90 (fold increase) [2]: >53
EC50 [2]: > 50 µM
EC90 [2]: > 50 µM
EC90 (HIV-1 (strain LAV); [6]): 1.05 µM
EC50 (HIV-1 (strain LAV); [7]): 0.21 µM

Nc1ccn([C@H]2C[Se][C@@H](CO)O2)c(=O)n1 [(−)-β-Se-ddC, (−)-(2S,5R)-β-L-2′,3′-dideoxy-3′-seleno-cytidine]
IC50 [1, 5]: > 100 µM
activity against the mutated virus [2]: significant activity
EC90 (HIV-1 (strain LAV); [6]): 5.42 µM
EC50 (HIV-1 (strain LAV); [7]): 0.88 µM
EC50 (xxBRU HIV-1): 0.11 µM
EC90 (xxBRU HIV-1): 0.95 µM

Nc1nc(=O)n(C2C[Se]C(CO)O2)cc1F (centres unmarked) [Compound 5-F-Cytosine]
IC50 [1, 3]: > 100 µM
IC50 (Vero cells): > 100 µM
IC50 (CEM cells): > 100 µM
EC50 (HIV-1 (strain LAV); [4]): 0.07 µM
